# Values quoted from earlier work as cited in US8999405B1 (priority 2013, dated 2015).
# Assays:
# [1] = alkaline nitrogenous base of nicotine
Compound,Solubility Alcohol (alcohol),"Solubility Other (other solvent, named in the cell)",Solubility Water (water),pKa [1]
CN1CCC[C@H]1c1cccnc1.O=C(O)c1ccccc1C(=O)O [Phthalic],soluble,insoluble: ether,soluble,–
"CN1CCC[C@H]1c1cccnc1 [nicotine I, 3-(1-methyl-2-pyrrolidinyl) pyridine]",–,–,–,~8.5
